Measured values taken from ChEMBL document CHEMBL1125475, “Preferred antagonist binding state of the NMDA receptor: synthesis, pharmacology, and computer modeling of (phosphonomethyl)phenylalanine derivatives” (1992).

What was measured:
Type in all cases: functional
[1] = organism: Mus musculus; assay: Tested for antagonistic activity against electrophysiological responses induced by NMDA (10 uM) in culture mouse cortical neurons at 10 uM
[2] = organism: Mus musculus; assay: Tested for antagonistic activity against electrophysiological responses induced by NMDA (10 uM) in culture mouse cortical neurons at 100 uM
[3] = organism: Mus musculus; assay: Antagonistic activity of 10 uM of compound against electrophysiological responses induced by NMDA (10 uM) in culture mouse cortical neurons
[4] = organism: Mus musculus; assay: Antagonistic activity of 100 uM of compound against electrophysiological responses induced by NMDA (10 uM) in culture mouse cortical neurons

Q: For NC(CCCP(=O)(O)O)C(=O)O (centres undefined), which Inhibition [1] is on record?
A: 68%

Q: And the Inhibition [2]?
A: 100%

Q: For NC(CC1CCCC(CP(=O)(O)O)C1)C(=O)O (centres undefined), which Inhibition [3] is on record?
A: 34%

Q: And the Inhibition [4]?
A: 90%

Q: For NC(CC1CCC(CS(=O)(=O)[O-])CC1)C(=O)O.[Na+] (centres undefined), which Inhibition [4] is on record?
A: 20%

Q: How did the Inhibition [4] turn out when NC(CC1CCCCC1CP(=O)(O)O)C(=O)O (centres undefined) was run?
A: 75%

Q: Which Inhibition [4] does the source give for NC(CC1CCCCC1CS(=O)(=O)[O-])C(=O)O.[Na+] (centres undefined) here?
A: 50%

Q: With NC(Cc1cccc(CC(=O)NO)c1)C(=O)O (centres undefined) as the compound, how does the Inhibition [2] read?
A: 12%

Q: NC(Cc1ccc(CP(=O)(O)O)cc1)C(=O)O (centres undefined) was tested. Which Inhibition [4] did it give?
A: 0%

Q: Which Inhibition [4] does the source give for NC(Cc1cccc(CC(=O)O)c1)C(=O)O (centres undefined) here?
A: 31%

Q: For NC(Cc1cccc(CP(=O)(O)O)c1)C(=O)O (centres undefined), which Inhibition [3] is on record?
A: 80%

Q: And the Inhibition [4]?
A: 100%

Q: Which Inhibition [4] does the source give for NC(Cc1cccc(CS(=O)(=O)[O-])c1)C(=O)O.[Na+] (centres undefined) here?
A: 0%

Q: Which Inhibition [4] does the source give for NC(CC1CCCC(CS(=O)(=O)[O-])C1)C(=O)O.[Na+] (centres undefined) here?
A: 50%

Q: Which Inhibition [4] does the source give for NC(Cc1ccc(CS(=O)(=O)[O-])cc1)C(=O)O.[Na+] (centres undefined) here?
A: 0%

Q: NC(Cc1ccccc1CS(=O)(=O)[O-])C(=O)O.[Na+] (centres undefined) was tested. Which Inhibition [4] did it give?
A: 22%

Q: Which Inhibition [4] does the source give for NC(CC1CCC(CP(=O)(O)O)CC1)C(=O)O (centres undefined) here?
A: 18%

Q: Which results are given for NC(Cc1ccccc1CP(=O)(O)O)C(=O)O (centres undefined)?
A: Inhibition [3]: 40%; Inhibition [4]: 87%
